Data published in US20200245620A1 (priority 2018, published 2020).
In brackets after ≈: the same amount, converted by molar mass.

Test system: Fusarium graminearum
Experiment: microbe, parasite or virus in culture
Assay type: cell-based
Settings: for EC50: Fusarium graminearum

For `CC(C)C1CCC(Cc2ccc(Cl)cc2)C1(O)Cn1cncn1` (stereo not drawn) [Ipconazole], the EC50 (F.g carbendazim-resistant strains) was 0.946 µg/mL (≈ 2.83 µM) and the EC50 (F.g phenamacril-resistant strains) was 0.101 µg/mL (≈ 0.303 µM).
In the case of `OCC1=C[C@H](N[C@H]2C[C@H](CO)[C@@H](O[C@@H]3O[C@H](CO)[C@@H](O)[C@H](O)[C@H]3O)[C@H](O)[C@H]2O)[C@H](O)[C@@H](O)[C@@H]1O` [Jinggangmycin], the “inhibitory activity on the growth in vitro” value (sensitive and fungicide-resistant strains, alone or mixed with ipconazole) is reported as “almost does not have inhibitory activity”.
